# Tested on: PGP1-derived RPE
# Assay: Small molecule screen for reprogramming of PGP1-derived RPE to neural retina (induction of fluorescent reporter expression)
# Settings: 40 μM; D0, D5 and D10 of treatment (FIG. 21)
# Experimental: A second small molecule screen tested 180 compounds at a concentration of 40 μM designed to target epigenetic pathways (from the Selleck Chemicals Epigenetic Compounds Library L1900).
row,Compound,subsequent induction of eGFP expression (retinal ganglion cell reporter) in PGP1-derived RPE
1,BI 847325,subsequently induces the expression of eGFP

# Same assay, conditions: Selleck Chemicals Epigenetic Compounds Library L1900; 40 μM
row,Compound,induction of Cerulean expression in PGP1-derived RPE
1,O=C(Nc1ccccc1-c1cn2c(CN3CC[C@@H](O)C3)csc2n1)c1ccc2ccccc2c1 [SSRT2183],showed evidence of inducing Cerulean expression
2,C1=C/COCc2cc(ccc2OCCN2CCCC2)Nc2nccc(n2)-c2cccc(c2)COC/1 [Pacritinib],showed evidence of inducing Cerulean expression
3,CN(C)CCCNC(=O)c1ccc(-c2cc(O)c3ncccc3c2)cc1 [ML324],showed evidence of inducing Cerulean expression
4,O=C(O)c1ccc(O)c2ncccc12 [Carboxy-8-hydroxyquinoline],showed evidence of inducing Cerulean expression
5,CCn1cc(-c2cccc(C(F)(F)F)c2)c2sc(C(=N)NC3CCS(=O)(=O)CC3)cc2c1=O [I-BRD9],showed evidence of inducing Cerulean expression
6,Cc1c(CN2CCC(Nc3ncnc4sc(CC(F)(F)F)cc34)CC2)ccc2[nH]c(C#N)cc12 [MI 463],showed evidence of inducing Cerulean expression
7,COc1cc2c(Nc3ccc(NC(=O)c4ccccc4)cc3)ncnc2cc1OCCCN1CCOCC1 [ZM 447439],showed evidence of inducing Cerulean expression
8,BI 847325,showed evidence of inducing Cerulean expression
9,CN1CCN(c2ccc(-c3cccc(CN4CCOCC4)c3)cc2NC(=O)c2c[nH]c(=O)cc2C(F)(F)F)CC1 [OICR-9429],showed evidence of inducing Cerulean expression

# Same assay, conditions: first library of 127 compounds; 5-15 days of treatment; at least 9 different replicates; U0126 39 μM, SC 79 110 μM, KU 0063794 3 μM
row,Compound,induction of Cerulean expression (blue fluorescent cells) in PGP1-derived RPE
1,CCOC(=O)C1=C(N)Oc2ccc(Cl)cc2C1C(C#N)C(=O)OCC (stereo not shown) [SC 79],produced blue fluorescent cells
2,N#CC(=C(/N)Sc1ccccc1N)/C(C#N)=C(\N)Sc1ccccc1N [U0126],produced blue fluorescent cells
3,COc1ccc(-c2ccc3c(N4CCOCC4)nc(N4C[C@@H](C)O[C@@H](C)C4)nc3n2)cc1CO [KU 0063794],produced blue fluorescent cells

# Source: patent publication US20260015581A1, “METHODS FOR THE PRODUCTION OF RETINAL CELLS” (MIAMI UNIVERSITY, priority 2018, published 2026)
